Measured values taken from patent publication US20250304700A1, “ANTI-BLOOD DENDRITIC CELL ANTIGEN 2 ANTIBODIES AND USES THEREOF” (Biogen MA Inc., priority 2012, published 2025).

Key:
[1] = test system: type I IFN transcription in purified pDCs; test: Q-PCR of type I IFN genes in CpG-A stimulated purified pDCs; type: cell-based, human; conditions: 5 μM CPG-A, 18 hours
Description: pDCs were purified using a two-step magnetic bead separation procedure (MACS kit, Miltenyi Biotec). […] Total assay volume was 200 μl/well. Plates were incubated for 18 hours at 37° C., and RNA was extracted from cells using Trizol reagent (Invitrogen corporation) and further purified using an RNeasy mini column (Qiagen Sciences). All primers and probes were purchased from Applied Biosystems Inc. Relative transcript quantities were determined for each sample by comparison to the oligonucleotide standard curve using Sequence Detection Software (Applied Biosystems Inc.) and normalized to a control (GAPDH).

[2] = test system: CHO-BDCA2/FcεRIγ stable transfectant cells; test: CDC assay with rabbit serum complement; type: cell-based; conditions: 1 h at 37° C.
Description: CHO− BDCA2/FcεRIγ stable transfectant cells (EAG2456 T1F2 Clone 34.16.7) were seeded at 5×10^4 cells in 96 well Collagen black well plates and incubated at 37° C. for 48 hrs. […] Negative control consisted of wells containing CHO cells, rabbit serum complement, and PI, without antibodies. NK and CHO cells lysed with T-100×were used to determine maximal killing. The plates were read using Cytoflour Fluorescence plate reader (ex530/em645).

[3] = test system: CD32a on the surface of pDCs; test: CD32 surface expression on isolated pDCs; type: cell-based, human
Excerpt: Treatment with effector competent isotype control had no effect on CD32 surface levels (FIG. 46).
CD40 is a cell surface protein expressed on pDCs. An anti-CD40 antibody with a fully functional Fc has the ability to engage CD40 and bind CD32 on the surface of pDCs.

[4] = test system: TLR3-induced IFNα production by PBMC; test: TLR3-induced IFNα production by PBMC; type: cell-based, human; conditions: 1 μM Poly I:C, BIIB059 10 μg/mL to 0.5 ng/ml
Description: This experiment was performed to determine whether other cell types triggered with different TLR ligands are still able to produce type I IFN even in the presence of BIIB059. […] PBMC from human healthy donors were stimulated with poly: IC, which is a TLR3 ligand that can potently induce type I IFN predominantly by monocytes. […] The plates were incubated overnight (18 hours) at 37° C. and 5% CO2. 200 μL of the supernatants were collected for evaluation of IFNα levels by ELISA.

[5] = test system: TLR9-induced IFNα production by PBMC; test: PBMC assay, TLR9-induced IFNα production; type: cell-based, human; conditions: 1 or 5 μM CpG-A, 18 hours
Description: PBMCs from heparinized venous blood of healthy donors were isolated by discontinuous gradient centrifugation over Ficoll, washed in PBS and re-suspended in complete culture medium (RPMI with 3% FBS). […] The plates were incubated overnight (18 hours) at 37° C., and the supernatants were collected for evaluation in IFNα ELISA assays (PBL InterferonSource). The assays were performed according to the manufacturer's protocol.
pDCs are the major producers of IFN in response to TLR7 and TLR9 stimulation. pDCs can produce thousand-fold more IFN than any other cell type. […] The plates were incubated overnight (18 hours) at 37° C. and 5% CO2. Supernatants were collected for evaluation in IFNα ELISA assays.

BDCA2 bearing CHO cells = test: ADCC assay with NK cells; type: cell-based; conditions: NK:CHO 5:1, 4 hours
Description: The CHO cell line (EAG2456 T1F2 Clone 34.16.7) was used as the target cell. Expression level of BDCA2 on the surface of CHO cells was determined by FACS using an APC-labeled anti-BDCA2 mAb (clone AC144, Miltenyi). NK cells were used as the effector cells and were separated from whole blood by negative selection using the RosetteSep™ Human NK Cell Enrichment Cocktail (Stem Cells Technologies). After a 20 minute incubation with the cocktail at room temperature, NK cells were isolated by discontinuous gradient centrifugation over ficoll. […] The negative control consisted of wells containing CHO and NK cells without antibodies. NK and CHO cells lysed with Tx-100 were used to determine maximal killing. ADCC was evaluated using the Vybrant Cytotoxicity Assay kit (Invitrogen), following the manufacturer's instructions. The assay detects G6PD from damaged cells based on the G6PD-dependent reduction of resazurin which emits fluorescence at 590 nm after excitation at 530 nm. The ADCC assay depicted in FIG. 22 panel A was performed using high BDCA2 expressing CHO cells (panel C) while the ADCC assay in FIG. 22 panel B used CHO cells with lower BDCA2 expression (panel D).

[6] = test system: cell surface BDCA2 on pDCs; test: BIIB059 titration in cynomolgus whole blood, anti-human IgG PE detection; type: binding, cynomolgus monkey; conditions: all cynomolgus monkeys
Description: The maximal values were taken from the values at the plateau in each assay (FIGS. 24 and 25).
Whole blood was drawn from twelve cynomolgus monkeys, once a week for three weeks total. […] MFI of PE was calculated with FlowJo software, and EC50 curves were generated in GraphPad Prism software.

[7] = test system: bulk polyclonal human IgG; test: Cross-interaction chromatography (CIC); type: physicochemical
Excerpt: Cross-interaction chromatography (CIC) is a high throughput method for preliminary assessment of the stickiness of mAb candidates (Jacobs et al., Pharm Res., 27 (1): 65-71 (2010)). In this method, bulk polyclonal human IgG is chemically coupled to an NHS-activated chromatography resin.

[8] = test system: IFNα production from SLE sera stimulated pDCs; test: IFNα production after stimulation with SLE sera; type: cell-based, human; conditions: sera from an SLE patient at final dilution 1/5
Description: The ability of anti-BDCA2 mAb to inhibit IFNα production following stimulation with a physiologically relevant ligand, namely, sera from patients with SLE was also tested. SLE sera are believed to induce type I IFN through complexes of anti-DNA autoantibodies and immunostimulatory hypomethylated DNA that stimulate TLR9. PBMCs were stimulated with sera from an SLE patient (provided by Dr. Gregg Silverman, NYU) and used at a final dilution of 1/5.

Sequence of cell surface BDCA2 on pDCs (as listed by the source): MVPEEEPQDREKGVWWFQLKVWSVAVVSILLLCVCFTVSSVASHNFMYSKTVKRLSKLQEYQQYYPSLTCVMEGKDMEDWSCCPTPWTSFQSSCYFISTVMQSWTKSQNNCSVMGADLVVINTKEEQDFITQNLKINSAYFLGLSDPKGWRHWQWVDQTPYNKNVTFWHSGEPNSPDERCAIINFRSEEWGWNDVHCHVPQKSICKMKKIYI

Substance | transcription of type I IFNs [1] | CDC activity, in words [2] | CD32 MFI ([3]; 10 μg/mL, 1 hour at 4° C.) | CD32 on the cell surface of pDCs ([3]; 16 hours at 37° C.) | TLR3-induced IFNα production [4] | average IC50, inhibition of TLR9-induced IFNα production ([5]; PBMC from SLE patients) [µg/mL] | average IC50, inhibition of TLR9-induced IFNα production ([5]; PBMC from healthy donors) [µg/mL] | ADCC activity, in words (BDCA2 bearing CHO cells) | concentration that saturates BDCA2 receptor binding [6] [µg/mL] | Solubility ([7]; CIC data table) | Rt-Test ([7]; IgG-derivatized column) | K′ ([7]; higher K′ values may indicate lower solubility) | Rt-Blank ([7]; non-derivatized column) | killing of BDCA2 bearing CHO cells (BDCA2 bearing CHO cells) [%] | IFNα production [8]
BIIB059: humanized IgG1 anti-BDCA2 antibody, mature heavy chain SEQ ID NO: 4 and mature light chain SEQ ID NO: 3 | inhibited transcription of all type I IFNs tested | cell killing by CDC similar to Triton lysis | did not decrease the CD32 MFI | able to induce the down-modulation of CD32 | did not impact | 0.03 ± 0.01 | 0.04 ± 0.05 | identical ADCC activity | 10 |  |  |  |  |  | 
24F4S: hu24F4 H4/L1 with C95S light chain; differs from BIIB059 by 1 amino acid residue |  | cell killing by CDC similar to Triton lysis |  |  |  |  |  |  |  | good | 9.3 | 0.022 | 9.1 | 100 | completely abrogated
